What all share (format): cell-based
For one assay, the target named is T1, OR2A5 (Homo sapiens, UniProt Q96R48, A202S/A255T/I126V).
T1 construct: expressed in transfected cells; host or cells: HEK293T-RTP1A1/RTP2
T1 sequence (Q96R48 1-311 I126V/A202S/A255T): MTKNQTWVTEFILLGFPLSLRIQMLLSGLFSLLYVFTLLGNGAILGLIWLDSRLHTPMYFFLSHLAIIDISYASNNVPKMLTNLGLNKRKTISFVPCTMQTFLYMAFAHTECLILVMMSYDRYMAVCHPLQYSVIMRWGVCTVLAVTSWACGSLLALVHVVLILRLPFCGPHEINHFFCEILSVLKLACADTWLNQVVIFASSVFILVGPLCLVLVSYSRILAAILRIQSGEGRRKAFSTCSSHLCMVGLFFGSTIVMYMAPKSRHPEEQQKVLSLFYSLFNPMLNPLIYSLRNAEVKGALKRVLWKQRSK
The experiment in a line: Luciferase reporter concentration-response analysis on OR2A5. To be noted: CRE-luciferase. As for the experimental part:
HEK293T-RTP1A1/RTP2 cells were maintained in minimal essential medium (EMEM, Lonza) containing 10% fetal bovine serum (M10). These cells were generated by transfecting HEK293T with an expression vector containing the sequences of the chaperone proteins RTP1A1 and RTP2 and a resistance gene to puromycin, using Lipofectamine 2000. The recombinant cell population, used in these experiments, was selected by adding 10 μg/ml of puromycin into the culture medium and subsequently subcloned (WO 2014/191047 A1).
(§1) Odorant molecules were diluted at a concentration of 1 mole/liter (M) into dimethyl sulfoxide (DMSO) to generate stock solutions.
(§2) For concentration-response analysis, serial dilutions of the tested molecules were prepared from stock solutions in EMEM plated into 96-well plates.
(§3) For the initial deorphanisation screening and dose-response analysis, a Luciferase-based gene reporter assay (Promega, Leiden, The Nederlands) was used. Briefly, cells were platted on Poly-D-lysine-coated 96-well and transfected with a plasmid containing the CRE-luciferase and a plasmid containing the olfactory receptor. Sixteen hours after transfection, the culture medium was replaced by serum-free EMEM containing the tested compounds at a determined concentration. After four hours of incubation at 37° C. degree, cells were lysed and processed for luminescence measurement. Luminescene emission was recorded. Results were expressed as luciferase activity (Relative […] Unit (RLU)) or as percentage of the response induced by 10 μM of the adenylate cyclase activator Forskolin. An empty plasmid is used as negative control.
In 1998, Krautwurst and collaborators have provided a model system for the study of ligand specificity and structure-function relationships for olfactory receptors (Krautwurst et al., 1998 Cell 95, 917-26). […] Based on their publication, a chimeric OR5A2_variant 1 olfactory receptor was created containing the TM2-TM7 amino acid sequence of OR5A2_variant 1 flanked by the N-teminal and C-terminal sequence of the olfactory receptor OR2A5 (cf. SEQ ID NO: 12). This chimeric OR5A2_variant 1 receptor shared 86 percent identity with the native OR5A2_variant 1 receptor (FIG. 6A and SEQ ID NO: 10).
(§4) To test if the amino acids substitution could impact the musk sensitivity, and specificity and to validate the Krautwurst's model, luciferase assays were performed as described previously after transfection of the chimeric OR5A2_variant 1. Cells were treated with semi-logarithmic serial dilutions of musk compounds from the four structurally different groups described earlier.

In another assay the target is T2, chimeric OR5A2_variant 1 (Homo sapiens, UniProt Q8NGI9, F293L/H55R/I289L/M58T).
T2 construct: expressed in transfected cells; host or cells: HEK293T-RTP1A1/RTP2
T2 sequence (Q8NGI9 with tags, fused parts or gaps H55R/M58T/I289L/F293L): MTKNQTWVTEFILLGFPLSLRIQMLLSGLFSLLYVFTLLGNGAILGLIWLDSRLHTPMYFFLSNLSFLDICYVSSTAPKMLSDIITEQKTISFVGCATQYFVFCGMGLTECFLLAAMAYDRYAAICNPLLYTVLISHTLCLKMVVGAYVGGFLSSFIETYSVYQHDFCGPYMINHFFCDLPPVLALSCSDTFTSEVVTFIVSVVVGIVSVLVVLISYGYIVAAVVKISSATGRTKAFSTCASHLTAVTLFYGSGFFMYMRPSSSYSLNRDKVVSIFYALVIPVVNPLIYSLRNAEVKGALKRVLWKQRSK
The experiment in a line: Luciferase reporter concentration-response analysis on chimeric OR5A2_variant 1. To be noted: CRE-luciferase; empty vector pEFIBRHO as control. As for the experimental part:
HEK293T-RTP1A1/RTP2 cells were maintained in minimal essential medium (EMEM, Lonza) containing 10% fetal bovine serum (M10). These cells were generated by transfecting HEK293T with an expression vector containing the sequences of the chaperone proteins RTP1A1 and RTP2 and a resistance gene to puromycin, using Lipofectamine 2000.
as §1, §2, §3, §4
In each experiment, an empty vector was used as negative control (pEFIBRHO).

The target of a further assay is T3, OR11A1 (Homo sapiens, UniProt Q9GZK7).
T3 construct: expressed in transfected cells; host or cells: HEK293T-RTP1A1/RTP2
T3 sequence (Q9GZK7 1-315): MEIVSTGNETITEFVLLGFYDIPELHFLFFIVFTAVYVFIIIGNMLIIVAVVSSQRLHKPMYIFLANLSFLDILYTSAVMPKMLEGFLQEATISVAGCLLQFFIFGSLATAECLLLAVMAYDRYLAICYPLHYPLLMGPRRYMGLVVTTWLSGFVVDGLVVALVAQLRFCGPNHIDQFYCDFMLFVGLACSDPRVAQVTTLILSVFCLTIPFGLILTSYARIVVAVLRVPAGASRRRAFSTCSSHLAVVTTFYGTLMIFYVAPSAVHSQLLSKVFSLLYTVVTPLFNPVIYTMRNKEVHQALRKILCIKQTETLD
As to the kind of experiment: Luciferase reporter concentration-response analysis on OR11A1.

What is called EC50 is the concentration needed to bring the measured effect to its halfway point. A higher EC50 goes with weaker potency.

In the case of `CC(=O)c1c(C)c([N+](=O)[O-])c(C(C)(C)C)c([N+](=O)[O-])c1C` [Musk Ketone, 4-tert-butyl-2,6-dimethyl-3,5-dinitroacetophenone], the “activation of OR2A5, concentration-response” value (shortened to “activation of OR2A5”) on OR2A5 is listed as “but not the OR2A5”. Moreover, the “activation of chimeric OR5A2_variant 1, concentration-response” value on chimeric OR5A2_variant 1 is listed as “shows dose response curves”.
Regarding `Cc1c([N+](=O)[O-])c(C)c([N+](=O)[O-])c(C(C)(C)C)c1[N+](=O)[O-]` [Musk Xylene, 1-tert-butyl-3,5-dimethyl-2,4,6-trinitrobenzene], the “activation of OR2A5” value on OR2A5 is listed as “but not the OR2A5”. For the same compound, the “activation of chimeric OR5A2_variant 1, concentration-response” value on chimeric OR5A2_variant 1 is recorded as “shows dose response curves”. This compound gave an EC50 on OR11A1 of 1860 nM.
In the case of `O=C1CCC/C=C\CCCCCCCCCC1` [Velvione], the “activation of OR2A5” value at OR2A5 was “but not the OR2A5”. The “activation of chimeric OR5A2_variant 1, concentration-response” value at chimeric OR5A2_variant 1 was “shows dose response curves”.

The values above are taken from patent publication US12461089B2, “Olfactory receptor involved in the perception of musk fragrance and the use thereof” (ChemoSensoryX Biosciences SA, priority 2017, dated 2025).
